According to patent US5547978A, “Derivatives of pyrrolidin-2-ylcarbonylheterocyclic compounds” (priority 1994, dated 1996):
Like-named read-outs stand apart in the source and are kept apart here.

How the values were obtained:
[1] = target: T1, prolyl endopeptidase (Sus scrofa, UniProt P23687); assay: Prolyl endopeptidase-inhibitory activity in vitro (porcine kidney enzyme, Z-Gly-Pro-p-nitroanilide substrate); format: biochemical
T1 construct: porcine kidney enzyme which was prepared according to methods of Walter and Yoshimoto et al; from tissue; host or cells: porcine kidney
T1 sequence (P23687 whole entry): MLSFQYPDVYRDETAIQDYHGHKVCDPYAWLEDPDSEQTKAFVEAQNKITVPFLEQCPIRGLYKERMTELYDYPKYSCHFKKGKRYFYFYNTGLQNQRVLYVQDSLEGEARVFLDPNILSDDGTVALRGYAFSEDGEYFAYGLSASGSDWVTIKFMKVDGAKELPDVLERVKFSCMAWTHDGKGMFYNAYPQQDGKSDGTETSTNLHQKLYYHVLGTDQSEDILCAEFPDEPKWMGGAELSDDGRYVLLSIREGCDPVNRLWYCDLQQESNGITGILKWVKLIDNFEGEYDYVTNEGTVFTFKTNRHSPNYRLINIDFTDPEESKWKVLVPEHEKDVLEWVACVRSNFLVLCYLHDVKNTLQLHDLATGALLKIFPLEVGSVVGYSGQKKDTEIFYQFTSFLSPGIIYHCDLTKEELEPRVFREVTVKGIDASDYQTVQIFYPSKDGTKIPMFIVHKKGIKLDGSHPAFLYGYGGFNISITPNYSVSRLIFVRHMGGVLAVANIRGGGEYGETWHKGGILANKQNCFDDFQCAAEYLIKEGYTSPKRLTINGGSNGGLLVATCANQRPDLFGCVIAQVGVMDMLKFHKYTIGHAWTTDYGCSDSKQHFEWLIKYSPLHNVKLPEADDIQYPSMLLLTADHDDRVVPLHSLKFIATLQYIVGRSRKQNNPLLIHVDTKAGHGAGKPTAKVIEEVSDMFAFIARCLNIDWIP
Method: A test compound (2 mg) was dissolved in DMSO (2 ml) and diluted to appropriate concentrations with DMSO. Z-Gly-Pro-p-nitroanilide (8 mg), a substrate was dissolved in dioxane (5 ml), water (27 ml) and 0.2 M phosphate buffer (pH 7.8, 40 ml). The substrate solution ([…]) was mixed with an inhibitor solution (3 ml) and followed by addition of above mentioned porcine kidney enzyme solution ([…]). Immediately after the mixing the UV absorbance at 405 nm was detected. The mixture was incubated at 37° C. for 20 min. and the UV absorbance was checked. A standard curve of absorbance (OD) vs. p-nitroaniline concentration was used to relate the absorbance to amount of substrate hydrolyzed. […] The inhibiting activity was obtained following the equation below. The IC50 value was estimated from the inhibitor concentration vs. inhibitory activity curve.
The percent inhibitory activity (%)=(ΔODc -ΔODs)/ΔODc ×100
ΔODs : ΔOD for test sample

[2] = tested on: brain prolyl endopeptidase; assay: Ex vivo prolyl endopeptidase inhibition in brain after oral administration; details: rat, p.o.; for PEP Actively in brain (% of control): 10 mg/kg
Method: Ex vivo enzyme inhibition studies were performed to assess the degree of CNS availability and prolyl endpeptidase inhibition after oral administration. Compounds were dissolved in a minimal mount of ethanol (about 10% total volume) and made up to the appropriate volume with 1% polyoxyether sorbitan monooleate (Tween 80). Rats were dosed p.o. and at the appropriate times killed. The brains were removed, homogenised in the ice-cooled assay buffer, and centrifugated.

[3] = porcine kidney enzyme, pH 7.8, 37° C., 20 min, read-out: IC50 (converted)

Structure (SMILES): O=C(c1nc2ccccc2s1)[C@@H]1CCCN1C(=O)[C@@H]1CCCN1C(=O)CCCc1ccccc1 [Example 1, 2-[1-{1-(4-Phenylbutanoyl)pyrrolidin-2(S)-ylcarbonyl}pyrrolidin-2(S)-ylcarbonyl]benzothiazole]
- IC50 [1, 3]: 2.14 nM
- PEP Actively in brain (% of control) ([2]; 0.25 hr): 42 % of control
- PEP Actively in brain (% of control) ([2]; 0.5 hr): 21 % of control
- PEP Actively in brain (% of control) ([2]; 1 hr): 32 % of control
- PEP Actively in brain (% of control) ([2]; 2 hr): 47 % of control
- PEP Actively in brain (% of control) ([2]; 4 hr): 69 % of control
- PEP Actively in brain (% of control) ([2]; 6 hr): 98 % of control
- brain prolyl endopeptidase inhibition (potency compared with SUAM-1221) ([2]; ex vivo, in words): more potent than SUAM-1221
- duration of action on brain prolyl endopeptidase (compared with SUAM-1221) ([2]; ex vivo, in words): longer duration of action

Structure (SMILES): O=C(c1nccs1)[C@@H]1CCCN1C(=O)[C@@H]1CCCN1C(=O)OCc1ccccc1 [Example 4, 2-{1-(1-Benzyloxycarbonylpyrrolidin-2(S)-ylcarbonyl)pyrrolidin-2(S)-ylcarbonyl}thiazole]
- IC50 [1]: 5.8 nM

Structure (SMILES): O=C(c1cccs1)[C@@H]1CCCN1C(=O)[C@@H]1CCCN1C(=O)OCc1ccccc1 [Example 25]
- IC50 [1, 3]: 1380 nM

Structure (SMILES): O=C(C1=NCCS1)[C@@H]1CCCN1C(=O)[C@@H]1CCCN1C(=O)CCCc1ccccc1 [Example 41, 2-[1-{1-(4-Phenylbutanoyl)pyrrolidin-2(S)-ylcarbonyl}pyrrolidin-2(S)-ylcarbonyl]thiazoline]
- IC50 [1]: 3.98 nM

Structure (SMILES): O=C(CSCc1ccccc1)C1CCCCC1C(=O)N1CCC[C@H]1C(=O)c1nc2ccccc2s1 (stereo partly drawn) [Example 22, 2-[1-(2-Benzylthioacetylcyclohexan-1-ylcarbonyl)pyrrolidin-2(S)-ylcarbonyl]benzothiazole]
- IC50 [1]: 12.6 nM

Structure (SMILES): O=C(c1nccs1)[C@@H]1CCCN1C(=O)[C@@H]1CCCN1C(=O)CCCc1ccccc1 [Example 5, 2-[1-{1(4-Phenylbutanoyl)pyrrolidin-2(S)-ylcarbonyl}pyrrolidin-2(S)-ylcarbonyl]thiazole]
- IC50 ([1]; porcine kidney enzyme, pH 7.8, 37° C., 20 min): 1.33 ng/mL

Structure (SMILES): COc1nccnc1C(=O)[C@@H]1CCCN1C(=O)[C@@H]1CCCN1C(=O)CCCc1ccccc1 [Example 40, 2-Methoxy-3-[1-{1-(4-phenylbutanoyl)pyrrolidine-2(S)-ylcarbonyl}pyrrolidin-2(S)-ylcarbonyl]pyrazine]
- IC50 [1]: 33.3 nM
